Data from patent US20220119375A1, “3-ARYLOXY-3-ARYL-PROPYLAMINE COMPOUND AND USES THEREOF” (Zhangzhou Pien Tze Huang Pharmaceutical Co., Ltd., priority 2018, published 2022).
Where two headings read alike, the source gives them in different places.

What was measured:
[1] = tested on: C57BL/6 mice, formalin pain model; assay: mice formalin pain model, dose response (Example 50); format: in vivo, mouse; settings: for Licking time: Phase II, 10-60 min
Method: 100 male C57BL/6 mice (9-week aged), were randomly divided into 10 groups to evaluate analgesic activity of two compounds in the mice formalin pain model, and each group had 10 mice. […] Before the start of experiment, the mice were allowed to adapt experimental environment for 72 h with free feeding and drinking water. The test drug was administrated intraperitoneally, and the dosage was as follows:
After administration, the mice were placed in a transparent, ventilated plexiglass cylinder, and 1 h later, 20 μl of 4% formalin solution was injected into the left hind plantar of mice in each group by micro-injector, and claw pain response in mice was recorded in real time by a mini-camera. The time length of licking left claw was used as an indicator of pain response, licking time in 0-10 min (phase I) and 10-60 min (phase II) was observed and recorded, and the statistical analysis was conducted. The half effective dose (ED50) of three compounds was calculated: ED50 referred to the dose of the drug that decreased licking time by half as compared with the blank control group. The smaller the ED50 value was, the lower the effective analgesic dose of the compound was and the stronger the analgesic effect was.

TRPA1 = target: T1, TRPA1 (Mus musculus, UniProt Q8BLA8); assay: IonWorks Barracuda (IWB) automated patch clamp detection of TRPA1 inhibitory activity; format: cell-based, mouse (mTRPA1); settings: automated patch clamp (IWB)
T1 construct: expressed in transfected cells; host or cells: HEK293
T1 sequence (Q8BLA8 whole entry): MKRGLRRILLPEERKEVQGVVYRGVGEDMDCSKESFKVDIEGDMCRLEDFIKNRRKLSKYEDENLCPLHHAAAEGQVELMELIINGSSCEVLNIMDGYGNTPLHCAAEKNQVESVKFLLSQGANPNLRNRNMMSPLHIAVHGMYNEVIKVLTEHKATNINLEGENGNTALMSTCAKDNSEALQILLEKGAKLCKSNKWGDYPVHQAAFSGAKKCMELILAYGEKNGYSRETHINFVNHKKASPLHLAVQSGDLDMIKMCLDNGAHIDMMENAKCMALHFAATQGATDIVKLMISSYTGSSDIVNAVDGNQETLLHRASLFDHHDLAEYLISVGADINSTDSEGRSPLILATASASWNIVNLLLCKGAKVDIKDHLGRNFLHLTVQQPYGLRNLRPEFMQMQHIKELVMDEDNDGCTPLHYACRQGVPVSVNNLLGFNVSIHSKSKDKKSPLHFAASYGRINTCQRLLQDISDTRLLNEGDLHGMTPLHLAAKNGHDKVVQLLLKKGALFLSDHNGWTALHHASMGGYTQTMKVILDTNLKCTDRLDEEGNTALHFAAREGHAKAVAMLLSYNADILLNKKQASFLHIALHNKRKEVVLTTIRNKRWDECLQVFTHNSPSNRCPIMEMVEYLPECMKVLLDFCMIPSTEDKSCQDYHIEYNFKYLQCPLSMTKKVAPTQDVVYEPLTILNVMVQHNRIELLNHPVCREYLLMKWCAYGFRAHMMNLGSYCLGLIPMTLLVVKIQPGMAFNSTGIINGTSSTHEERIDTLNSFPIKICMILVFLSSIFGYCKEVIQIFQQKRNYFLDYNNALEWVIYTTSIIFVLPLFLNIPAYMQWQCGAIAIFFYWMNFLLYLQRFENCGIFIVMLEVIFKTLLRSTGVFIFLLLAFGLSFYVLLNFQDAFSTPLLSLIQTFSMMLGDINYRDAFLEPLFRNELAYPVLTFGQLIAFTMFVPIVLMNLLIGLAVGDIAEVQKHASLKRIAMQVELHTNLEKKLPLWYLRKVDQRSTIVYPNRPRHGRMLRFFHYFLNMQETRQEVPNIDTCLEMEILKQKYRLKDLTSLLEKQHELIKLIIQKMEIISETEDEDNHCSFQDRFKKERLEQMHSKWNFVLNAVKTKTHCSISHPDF
Method: The inhibitory activity of some compounds in the Examples of present invention on transient receptor potential channel protein TRPA1 was tested in this example. The compound of formula A (WO2010075353) was used as a positive control compound: […]
IonWorks Barracuda (IWB) automated patch clamp detection was used as test method: HEK293 cells stably expressing TRPA1 were placed in DMEM medium containing 15 μg/mL Blasticidin S HCl, 200 μg/mL Hygromycin B and 10% FBS in the T175 culture flask, and cultured in 37° C., 5% CO2 incubator. When the cell density reached about 80%, the culture medium was removed, rinsed with phosphate buffered saline (PBS) without calcium and magnesium. 3 mL of Trypsin was added to digest for 2 min, 7 mL of culture medium was added to terminate the digestion. The cells were collected to 15 mL centrifuge tube and centrifuged at 800 rpm for 3 min. After the supernatant was removed, the cells were added to appropriate volume of extracellular fluid for re-suspending, and the cell density was controlled at 2-3×10^6/mL for IWB experiment. Extracellular fluid formulation (in mM): 140 NaCl, 5 KCl, 1 MgCl2, 10 HEPES, 0.5 EGTA, 10 Glucose (pH 7.4); intracellular fluid formulation (in mM): 140 CsCl, 10 HEPES, 5 EGTA, 0.1 CaCl2, 1 MgCl2 (pH 7.2). 28 mg/mL of amphotericin B was freshly prepared with DMSO on the day of experiment, and then final concentration of 0.1 mg/mL was prepared with intracellular fluid.
Population patch clamp (PPC) plate was used in IWB experiment. The entire detection process was automatically carried out by the instrument. Extracellular fluid was added into 384 wells of PPC plate, and 6 µL of the intracellular fluid was added into plenum (under the PPC plate), 6 µL of cell fluid was added for sealing test, and finally the intracellular fluid in plenum was replaced with amphotericin B-containing intracellular fluid to establish a whole-cell recording mode after perforating sealed cells. The sampling frequency for recording TPRA1 current was 10 kHz, the cells were clamped at 0 mV, the voltage stimulation command (channel protocol) was a ramp voltage from −100 mV to +100 mV for 300 ms. This voltage stimulation was applied every 10 s, mTRPA1 current was induced by 300 µM AITC.
Data recording and current amplitude measurement export were carried out by IWB software (version 2.5.3, Molecular Devices Corporation, Union City, Calif.). No statistics was recorded for holes with sealing impedance lower than 20 MΩ. The original current data was corrected by software for leakage reduction. TRPA1 current amplitude was measured at +100 mV. […] If IC50 value of HC030031 exceeded 3 times the average IC50 value previously obtained on each plate, it would be re-tested. The dose-effect curve of compounds and IC50 were fitted and calculated by GraphPad Prism 5.02 (GraphPad Software, San Diego, Calif.).

[2] = tested on: ICR mice, acetic acid writhing pain model; assay: mice acetic acid writhing pain model; format: in vivo, mouse; settings: for number of appearance of writhing reaction: within 30 min, saline group 49 times
Method: Male ICR mice, weighed 22-25 g, were fasted but allowed to drink water freely for 2 h before administration. All ICR mice were weighed and grouped randomly, and the number of animals in each group was >10. […] The test compound was IC-1 (the compound prepared in Example 9), and the administration dosages were 5 mg/kg and 10 mg/kg. […] When concave abdomen, stretched trunk and hind claw, and high buttocks appeared, one number point was recorded. […] After administration, the fewer visceral pains in the mice were, the stronger the analgesic effect of the compound was.

| IC50 (TRPA1; HEK293 cells stably expressing TRPA1, AITC-induced current at +100 mV, read-out: IC50 (μM) on TRPA1 in the patch clamp detection test) [µM] | SMILES | decrease of licking time as compared with blank Vehicle ([1]; 1 mg/kg, phase II (10-60 min)) | writhing number lower than in the saline control group ([2]; 5 mg/kg by gavage) [%] | number of appearance of writhing reaction ([2]; 5 mg/kg by gavage) [times] | number of appearance of writhing reaction ([2]; 10 mg/kg by gavage) [times] | half effective dose ([2]; acetic acid writhing, gavage) | Licking time ([1]; 1 mg/kg intraperitoneal) [s] | Licking time ([1]; 5 mg/kg intraperitoneal) [s] | Licking time ([1]; 10 mg/kg intraperitoneal) [s] | Licking time ([1]; 20 mg/kg intraperitoneal) [s] | ED50 ([1]; Mus musculus, ip, intraperitoneal, phase II (10-60 min), dose that decreased licking time by half) [mg/kg] | IC50 (TRPA1; read-out: IC50 on TRPA1) [µM] | number of appearance of writhing reaction ([2]; 20 mg/kg by gavage) [times] |
| --- | --- | --- | --- | --- | --- | --- | --- | --- | --- | --- | --- | --- | --- |
| 1 to 5 | CNCC[C@H](Oc1cccc2ccoc12)c1cccs1 [Compound IC-1, (S)-3-(benzofuran-7-yloxy)-N-methyl-3-(thiophen-2-yl)propyl-1-amine] | more than 50% | 50 | 20 | 17 | less than 5 mg/kg |  |  |  |  |  |  |  |
|  | CNCC[C@H](Oc1cccc2ccccc12)c1cccs1 [Duloxetine (S configuration), Duloxetine] |  |  |  | 27 |  | 259.97 ± 64.44 | 230.49 ± 41.31 | 162.83 ± 36.27 | 72.27 ± 17.29 | 8 | 24.7 | 21 |
